Several values for one entry are separate records, joined by “and”; a condition that tells them apart may be missing. Equal values may be shown once.

Test [1] has as its target T1, NOP receptor (Homo sapiens, UniProt P41146).
T1 construct: expressed in transfected cells
It is filed as binding.

In test [2] the target is T2, DOP receptor (Homo sapiens, UniProt P41143).
T2 construct: expressed in transfected cells
In kind it is binding.

Test [3] deals with T2, DOP receptor. The test is described as follows: [35S]GTPγS antagonist assay versus DPDPE. In kind it is biochemical. (GTPγS is a poorly hydrolysed GTP analogue; its binding reports G protein activation.)
The target of test [4] is T2, DOP receptor. Nature of the test: [35S]GTPγS binding stimulation (agonist), CHO membranes. In kind it is biochemical.
Another test relates to CD1 mice. Nature of the test: Mouse tail flick assay (radiant heat, acute thermal nociception). In kind it is in vivo.
In test [5] the target is T1, NOP receptor. The test is described as follows: [35S]GTPγS binding stimulation (agonist), CHO membranes. It is filed as biochemical.
Test [6] has as its target T3, MOP receptor (Homo sapiens, UniProt P35372).
T3 construct: expressed in transfected cells
It is filed as biochemical.

The target of test [7] is T4, KOP receptor (Homo sapiens, UniProt P41145).
T4 construct: expressed in transfected cells
In kind it is binding.

Test [8] deals with T1, NOP receptor. The test is described as follows: [35S]GTPγS antagonist assay versus N/OFQ. In kind it is biochemical.
Test [9] addresses T3, MOP receptor. The test is described as follows: [35S]GTPγS antagonist assay and Schild analysis versus DAMGO. In kind it is biochemical.
For test [10], the target named is T3, MOP receptor. It is filed as binding.
Test [11] addresses T4, KOP receptor. In kind it is biochemical.
Test [12] concerns the target T4, KOP receptor. The test is described as follows: [35S]GTPγS antagonist assay versus U69593. It is filed as biochemical.

T2 sequence (P41143 whole entry): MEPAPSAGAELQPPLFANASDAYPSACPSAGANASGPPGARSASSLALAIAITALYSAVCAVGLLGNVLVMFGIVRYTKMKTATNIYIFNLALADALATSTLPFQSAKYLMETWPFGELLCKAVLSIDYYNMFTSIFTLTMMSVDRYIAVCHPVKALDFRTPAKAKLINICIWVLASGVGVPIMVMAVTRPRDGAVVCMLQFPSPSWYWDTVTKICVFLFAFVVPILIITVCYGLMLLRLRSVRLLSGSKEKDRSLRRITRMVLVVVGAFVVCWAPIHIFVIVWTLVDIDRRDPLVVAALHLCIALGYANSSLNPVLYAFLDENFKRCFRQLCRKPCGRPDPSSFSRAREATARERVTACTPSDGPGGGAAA
T1 sequence (P41146 whole entry): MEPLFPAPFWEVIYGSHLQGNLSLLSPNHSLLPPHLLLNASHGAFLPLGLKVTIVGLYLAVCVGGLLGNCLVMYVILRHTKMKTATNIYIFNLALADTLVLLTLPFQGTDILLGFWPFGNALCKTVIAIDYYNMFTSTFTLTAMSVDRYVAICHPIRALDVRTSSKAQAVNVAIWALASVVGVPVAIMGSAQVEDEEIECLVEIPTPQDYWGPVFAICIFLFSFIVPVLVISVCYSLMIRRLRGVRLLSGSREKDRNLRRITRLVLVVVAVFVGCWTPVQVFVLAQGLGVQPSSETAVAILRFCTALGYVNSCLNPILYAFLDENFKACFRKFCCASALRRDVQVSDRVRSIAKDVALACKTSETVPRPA
T4 sequence (P41145 whole entry): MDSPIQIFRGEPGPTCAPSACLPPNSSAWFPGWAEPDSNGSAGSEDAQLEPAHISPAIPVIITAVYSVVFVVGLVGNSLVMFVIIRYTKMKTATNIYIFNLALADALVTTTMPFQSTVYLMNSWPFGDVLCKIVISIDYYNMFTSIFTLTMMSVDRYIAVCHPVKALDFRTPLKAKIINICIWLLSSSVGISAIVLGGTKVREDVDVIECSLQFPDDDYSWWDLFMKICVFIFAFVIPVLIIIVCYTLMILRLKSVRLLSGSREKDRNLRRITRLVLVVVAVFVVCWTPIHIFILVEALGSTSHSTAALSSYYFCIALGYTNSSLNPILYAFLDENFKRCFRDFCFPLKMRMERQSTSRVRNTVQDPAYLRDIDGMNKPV
T3 sequence (P35372 whole entry): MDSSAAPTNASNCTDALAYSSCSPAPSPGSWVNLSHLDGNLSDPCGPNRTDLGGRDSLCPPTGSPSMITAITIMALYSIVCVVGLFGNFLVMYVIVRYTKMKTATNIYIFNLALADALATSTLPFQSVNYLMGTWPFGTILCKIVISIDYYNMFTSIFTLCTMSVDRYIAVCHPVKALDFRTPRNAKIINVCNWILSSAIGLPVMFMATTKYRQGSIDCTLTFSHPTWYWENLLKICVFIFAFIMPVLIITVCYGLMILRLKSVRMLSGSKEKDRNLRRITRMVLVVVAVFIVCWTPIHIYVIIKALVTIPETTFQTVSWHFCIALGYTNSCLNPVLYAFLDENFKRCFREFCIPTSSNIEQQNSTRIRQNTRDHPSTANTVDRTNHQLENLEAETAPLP

One may read the Ki as the equilibrium dissociation constant of an inhibitor or competing ligand from its target. The IC50 is the concentration that inhibits the measured activity by half. A word on the EC50: it is the concentration giving half of the maximal effect. Read a low EC50 as greater potency. With `COc1ccc(CC(=O)O[C@@]23CCC(=O)[C@@H]4Oc5c(O)ccc6c5[C@@]42CCN(CC2CC2)[C@@H]3C6)cc1` [Compound 7f, 14β-(4′-methoxyphenylacetyl)-17-cyclopropylmethyl-7,8-dihydronoroxymorphinone], the Ki on NOP receptor [1] was found to be 0.0498 ± 0.0071 µM; at DOP receptor [2] it was 0.00256 ± 0.00048 µM; on KOP receptor [7], 0.0019 ± 0.00042 µM; on MOP receptor [10] it was 0.00108 ± 0.00033 µM. Also, on DOP receptor [3] ([35S]GTPγS antagonist assay), the “Type of inhibition at DOP” value is listed as “non-competitive”. For the same compound, the half-maximal inhibitory concentration (IC50) at DOP receptor [3] ([35S]GTPγS, in the presence of 1 μM DPDPE) amounted to 0.0481 ± 0.0141 µM; at NOP receptor [8] ([35S]GTPγS, in the presence of 100 nM N/OFQ), 5.64 µM; at MOP receptor [9] (in the presence of 1 μM DAMGO, read-out: IC50 inhibiting DAMGO stimulation of [35S]GTPγS binding, MOP), 0.0124 ± 0.00225 µM; on KOP receptor [12] ([35S]GTPγS, in the presence of 1 μM U69593), 0.0122 ± 0.00011 µM. The DOP % stim at DOP receptor [4] ([35S]GTPγS stimulation relative to standard agonist DPDPE) was found to be 18.4 ± 1.3%. Also, the EC50 at DOP receptor [4] ([35S]GTPγS stimulation, * = too little stimulation (if < 15% an EC50 was not always determined)) came out at 0.0594 ± 0.0196 µM; on NOP receptor [5] ([35S]GTPγS stimulation, average ± SD) it was 0.0618 ± 0.0201 µM. For the same compound, the “Tail flick latency versus vehicle controls” value with CD1 mice (1 mg/kg s.c.) was “significant increase in tail flick latency compared to vehicle controls at the 60- and 120-min time points”. For the same compound, the “Effect on morphine-induced antinociception, tail flick” value in the test on CD1 mice (1 mg/kg s.c. given 10 min before morphine, P < 0.05) was “morphine-induced antinociception was attenuated at the 30- and 60-min time points”. Moreover, the “Antinociception versus vehicle controls, tail flick” value in the test with CD1 mice (3.0 mg/kg s.c.) is “significant antinociception at the 30- and 120-min time points”. The “Antinociception (%MPE), tail flick” value with CD1 mice (1 and 3 mg/kg s.c., 30, 60, 120 min) is “low levels of antinociception”. The compound further came in with an NOP % stim on NOP receptor [5] ([35S]GTPγS stimulation relative to standard agonist N/OFQ) of 8.9 ± 1.0%. On MOP receptor [6], this compound yielded an MOP % stim of 7.8 ± 3.5%. At NOP receptor [8] ([35S]GTPγS antagonist assay), the “Type of inhibition at NOP” value is listed as “non-competitive”. Moreover, the “Type of antagonism at MOP” value on MOP receptor [9] (Schild analysis) was “very potent competitive antagonists”. On MOP receptor [9] (antagonist activity in [35S]GTPγS assay, Schild analysis versus DAMGO), the “MOP pA2” value is 10.58 ± 0.13 and 10.58 ± 0.14. For the same compound, at MOP receptor [9] (antagonist activity in [35S]GTPγS assay, Schild analysis versus DAMGO, unit not given), the “MOP Ke” value stood at 0.026 ± 0.008. Also, on KOP receptor [11], the KOP % stim amounted to 6.5 ± 3.3%. Moreover, on KOP receptor [12] ([35S]GTPγS antagonist assay), the “Type of inhibition at KOP” value is “non-competitive”.
